From patent US4459290A, “C-23-Modified derivatives of OMT, pharmaceutical compositions and method of use” (priority 1982, dated 1984)
In brackets after ≈: the same amount, converted by molar mass. Read-outs that look alike come from different tables or passages of the source.

Experiments:
[1] = test system: Streptococcus pneumoniae Park I; test: microbe, parasite or virus in culture; assay type: cell-based; details: Streptococcus pneumoniae; read-out: MIC
Procedure: (§1) Especially noteworthy is the improved activity against gram-negative bacteria for several derivatives when compared to the activity of OMT. […] The MIC's in Tables V and VI were determined by standard agar-dilution assays. The MIC's in Table VII were obtained using a conventional broth-dilution microtiter test.

[2] = test system: Haemophilus influenzae R252; test: MIC, standard agar-dilution assay (Table V); assay type: cell-based; details: Haemophilus influenzae
Procedure: (§2) The MIC's in Tables V and VI were determined by standard agar-dilution assays. The MIC's in Table VII were obtained using a conventional broth-dilution microtiter test.

[3] = test system: Streptococcus pyogenes C203; test: MIC, standard agar-dilution assay (Table V); assay type: cell-based; details: Streptococcus pyogenes
Procedure: as §2

[4] = test system: Haemophilus influenzae Holt; test: MIC, standard agar-dilution assay (Table V); assay type: cell-based; details: Haemophilus influenzae
Procedure: as §2

[5] = test system: Pasteurella hemolytica 22C; test: MIC, broth-dilution microtiter test (Table VII); assay type: cell-based; details: Pasteurella, P. hemolytica 22C, read-out: MIC
How it was run: (§3)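 Broth microdilution, run as a conventional microtiter test, supplied MICs for the gram-positive S. aureus and the Pasteurella isolates. Enterobacter data instead rest on a standard agar-dilution procedure.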

[6] = test system: Pasteurella multocida 22A; test: MIC, broth-dilution microtiter test (Table VII); assay type: cell-based; details: Pasteurella multocida; P. multocida 22A; broth-dilution microtiter; read-out: MIC
How it was run: (§4)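 Serial compound dilutions were incorporated into agar for testing E. aerogenes. Dilutions in broth, arranged in microtiter wells, were used for S. aureus and P. multocida.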

[7] = test system: Pasteurella multocida 68C; test: MIC, broth-dilution microtiter test (Table VII); assay type: cell-based; details: Pasteurella multocida; P. multocida 68C; broth-dilution microtiter; read-out: MIC
How it was run: as §4

[8] = test system: Pasteurella multocida 17E; test: MIC, broth-dilution microtiter test (Table VII); assay type: cell-based; details: Pasteurella multocida; P. multocida 17E, bovine isolate; broth-dilution microtiter; read-out: MIC
How it was run: as §4

[9] = test system: Pasteurella hemolytica 41D; test: MIC, broth-dilution microtiter test (Table VII); assay type: cell-based; details: Pasteurella, P. hemolytica 41D, read-out: MIC
How it was run: as §3

Mycoplasma synoviae = test: MIC, broth-dilution microtiter test (Table VII); assay type: cell-based; details: Mycoplasmopsis synoviae; M. synoviae; broth-dilution microtiter; read-out: MIC
Procedure: as §1

Mycoplasma gallisepticum = test: MIC, broth-dilution microtiter test (Table VII); assay type: cell-based; details: Mycoplasmoides gallisepticum
Procedure: as §1

[10] = test system: Pasteurella hemolytica 23C; test: MIC, broth-dilution microtiter test (Table VII); assay type: cell-based; details: Pasteurella, P. hemolytica 23C, read-out: MIC
How it was run: as §3

[11] = test system: Pasteurella multocida 60A; test: MIC, broth-dilution microtiter test (Table VII); assay type: cell-based; details: Pasteurella multocida; P. multocida 60A, avian isolate; broth-dilution microtiter; read-out: MIC
How it was run: as §4

Streptococcus sp. 80 = test: MIC, broth-dilution microtiter test (Table VII); assay type: cell-based
Procedure: as §1

[12] = test system: Pasteurella multocida 40G; test: MIC, broth-dilution microtiter test (Table VII); assay type: cell-based; details: Pasteurella multocida
How it was run: as §4

Mycoplasma hyorhinis = test: MIC, broth-dilution microtiter test (Table VII); assay type: cell-based; details: M. hyorhinis; broth-dilution microtiter; read-out: MIC
Procedure: as §1

Staphylococcus aureus = test: MIC, broth-dilution microtiter test (Table VII); assay type: cell-based; details: Staphylococcus aureus
How it was run: as §4

Proteus rettgeri PR7 = test: MIC, standard agar-dilution assay (Table VI); assay type: cell-based; details: Providencia rettgeri; P. rettgeri PR7; agar dilution; read-out: MIC
Procedure: as §1

Proteus morganii PR15 = test: MIC, standard agar-dilution assay (Table VI); assay type: cell-based; details: Morganella morganii
Procedure: as §1

Proteus inconstans PR33 = test: MIC, standard agar-dilution assay (Table VI); assay type: cell-based; details: Providencia alcalifaciens, PR33
Procedure: as §1

Enterobacter cloacae EB5 = test: MIC, standard agar-dilution assay (Table VI); assay type: cell-based
Procedure: as §1

Shigella sonnei N9 = test: MIC, standard agar-dilution assay (Table V); assay type: cell-based
How it was run: (§5)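 Growth inhibition in liquid medium, in a routine microtiter broth-dilution series, gave the MIC against staphylococci and pasteurellae; the gram-negative enteric strain was tested by conventional agar dilution instead.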

[13] = test system: Staphylococcus aureus S13E; test: MIC, standard agar-dilution assay (Table V); assay type: cell-based; details: Staphylococcus aureus, S13E
Procedure: as §1

[14] = test system: Staphylococcus aureus V41; test: MIC, standard agar-dilution assay (Table V); assay type: cell-based; details: Staphylococcus aureus, V41
Procedure: as §1

[15] = test system: Klebsiella pneumoniae KAE; test: MIC, standard agar-dilution assay (Table V); assay type: cell-based; details: Klebsiella pneumoniae
How it was run: as §5

Escherichia coli EC14 = test: MIC, standard agar-dilution assay (Table V); assay type: cell-based; details: Escherichia coli, EC14
How it was run: as §5

Escherichia coli N10 = test: MIC, standard agar-dilution assay (Table V); assay type: cell-based; details: Escherichia coli, N10
How it was run: as §5

[16] = test system: Staphylococcus aureus X1.1; test: MIC, standard agar-dilution assay (Table V); assay type: cell-based; details: Staphylococcus aureus
Procedure: as §1

[17] = test system: Staphylococcus epidermidis EPI2; test: MIC, standard agar-dilution assay (Table V); assay type: cell-based; details: Staphylococcus epidermidis; S. epidermidis EPI2; agar dilution; read-out: MIC
Procedure: as §1

[18] = test system: Staphylococcus epidermidis EPI1; test: MIC, standard agar-dilution assay (Table V); assay type: cell-based; details: Staphylococcus epidermidis; S. epidermidis EPI1; agar dilution; read-out: MIC
Procedure: as §1

[19] = test system: Streptococcus Group D X66; test: MIC, standard agar-dilution assay (Table V); assay type: cell-based; details: Streptococcus Group D X66; agar dilution; read-out: MIC
Procedure: as §1

[20] = test system: Klebsiella pneumoniae X26; test: MIC, standard agar-dilution assay (Table V); assay type: cell-based; details: Klebsiella pneumoniae, X26
Procedure: as §1

[21] = test system: Staphylococcus aureus X400; test: MIC, standard agar-dilution assay (Table V); assay type: cell-based; details: Staphylococcus aureus
Procedure: as §1

Streptococcus Group 9960 = test: MIC, standard agar-dilution assay (Table V); assay type: cell-based; details: GROUP9960
Procedure: as §1

[22] = test system: Streptococcus pyogenes C203; test: ED50 in mice experimentally infected with S. pyogenes C203 (Table VIII); assay type: in vivo
Procedure: The C-23 modified derivatives of OMT of this invention have shown in vivo antimicrobial activity against experimental infections. When two doses of test compound were administered to mice experimentally infected with a gram-positive bacterium, S. pyogenes C203, the activity observed was measured as an ED50 value [effective dose in mg/kg to protect 50% of the test animals: see Warren Wick, et al., J. Bacteriol. 81, 233-235 (1961)].

[23] = C203, sc, mice, subcutaneous, doses given 1 and 4 hours postinfection, read-out: ED50, Subcutaneous

Structure (SMILES) | MIC [1] | MIC [5] | MIC [6] | MIC [7] | MIC [8] | MIC [9] | MIC (Mycoplasma synoviae) | MIC [10] | MIC [11] | MIC (Mycoplasma hyorhinis) | MIC (Proteus rettgeri PR7) | MIC (Proteus inconstans PR33) | MIC (Shigella sonnei N9) | MIC [13] | MIC [14] | MIC [15] | MIC (Escherichia coli EC14) | MIC (Escherichia coli N10) | MIC [17] | MIC [18] | other results
CCC1OC(=O)CC(O)C(C)C(OC2OC(C)C(O)C(N(C)C)C2O)C(CC=O)CC(C)C(=O)C=CC(C)=CC1CSc1ccccc1 (stereo not drawn) [Compound 2, 23-Deoxy-23-(phenyl)thio-OMT] | 0.06 µg/mL (≈ 0.087 µM) | 3.12 µg/mL (≈ 4.52 µM) | 1.56 µg/mL (≈ 2.26 µM) | 1.56 µg/mL (≈ 2.26 µM) | 1.56 µg/mL (≈ 2.26 µM) | 1.56 µg/mL (≈ 2.26 µM) | 0.39 µg/mL (≈ 0.565 µM) | 3.12 µg/mL (≈ 4.52 µM) | 1.56 µg/mL (≈ 2.26 µM) | 12.5 µg/mL (≈ 18.1 µM) | 16 µg/mL (≈ 23.2 µM) | 32 µg/mL (≈ 46.4 µM) | 16 µg/mL (≈ 23.2 µM) | 0.06 µg/mL (≈ 0.087 µM) | 0.125 µg/mL (≈ 0.181 µM) | 64 µg/mL (≈ 92.8 µM) | 32 µg/mL (≈ 46.4 µM) | 32 µg/mL (≈ 46.4 µM) | 0.125 µg/mL (≈ 0.181 µM) | 0.125 µg/mL (≈ 0.181 µM) | MIC ([2]; H. influenzae R252, ampicillin-resistant strain, agar dilution, read-out: MIC): 1 µg/mL (≈ 1.45 µM); MIC ([3]; S. pyogenes C203, agar dilution, read-out: MIC): 0.015 µg/mL (≈ 0.0217 µM); MIC ([4]; H. influenzae Holt, ampicillin-sensitive strain, agar dilution, read-out: MIC): 1 µg/mL (≈ 1.45 µM); MIC (Mycoplasma gallisepticum; M. gallisepticum, broth-dilution microtiter, read-out: MIC): 0.09 µg/mL (≈ 0.13 µM); MIC (Streptococcus sp. 80; Streptococcus sp. 80, broth-dilution microtiter, read-out: MIC): 0.09 µg/mL (≈ 0.13 µM); MIC ([12]; 40G): 0.78 µg/mL (≈ 1.13 µM); MIC (Staphylococcus aureus; S. aureus, broth-dilution microtiter, read-out: MIC): 0.39 µg/mL (≈ 0.565 µM); MIC (Proteus morganii PR15; P. morganii PR15, agar dilution, read-out: MIC): 8 µg/mL (≈ 11.6 µM); MIC (Enterobacter cloacae EB5; E. cloacae EB5, agar dilution, read-out: MIC): 64 µg/mL (≈ 92.8 µM); MIC ([16]; S. aureus X1.1, agar dilution, read-out: MIC): 0.125 µg/mL (≈ 0.181 µM); MIC [19]: 0.06 µg/mL (≈ 0.087 µM); MIC [20]: 2 µg/mL (≈ 2.9 µM); MIC ([21]; S. aureus X400, methicillin-resistant strain, agar dilution, read-out: MIC): 0.125 µg/mL (≈ 0.181 µM); MIC (Streptococcus Group 9960): 0.5 µg/mL (≈ 0.725 µM); ED50 ([22]; C203, po, read-out: ED50, Oral): > 100 mg/kg; ED50 [22, 23]: 25.7 mg/kg
CCC1OC(=O)CC(O)C(C)C(OC2OC(C)C(O)C(N(C)C)C2O)C(CC=O)CC(C)C(=O)C=CC(C)=CC1CSc1nnnn1C (stereo not drawn) [Compound 5, 23-Deoxy-23-(1-methyltetrazol-5-yl)thio-OMT] | 0.06 µg/mL (≈ 0.0862 µM) | 12.5 µg/mL (≈ 18 µM) | 6.25 µg/mL (≈ 8.98 µM) | 6.25 µg/mL (≈ 8.98 µM) | 6.25 µg/mL (≈ 8.98 µM) | 12.5 µg/mL (≈ 18 µM) | 0.78 µg/mL (≈ 1.12 µM) | 12.5 µg/mL (≈ 18 µM) | 6.25 µg/mL (≈ 8.98 µM) | 6.25 µg/mL (≈ 8.98 µM) | 64 µg/mL (≈ 92 µM) | > 128 µg/mL | 64 µg/mL (≈ 92 µM) | 0.5 µg/mL (≈ 0.719 µM) | 0.5 µg/mL (≈ 0.719 µM) | > 128 µg/mL | 64 µg/mL (≈ 92 µM) | > 128 µg/mL | 0.5 µg/mL (≈ 0.719 µM) | 0.25 µg/mL (≈ 0.359 µM) | MIC ([2]; R252): 2 µg/mL (≈ 2.87 µM); MIC ([3]; C203): 0.25 µg/mL (≈ 0.359 µM); MIC [4]: 4 µg/mL (≈ 5.75 µM); MIC (Mycoplasma gallisepticum): 1.56 µg/mL (≈ 2.24 µM); MIC (Streptococcus sp. 80; Streptococcus, SP.80): 1.56 µg/mL (≈ 2.24 µM); MIC ([12]; P. multocida 40G, broth-dilution microtiter, read-out: MIC): 3.12 µg/mL (≈ 4.48 µM); MIC (Staphylococcus aureus): 1.56 µg/mL (≈ 2.24 µM); MIC (Proteus morganii PR15; PR15): > 128 µg/mL; MIC (Enterobacter cloacae EB5; EB5): > 128 µg/mL; MIC ([16]; X1.1): 0.5 µg/mL (≈ 0.719 µM); MIC [19]: 0.5 µg/mL (≈ 0.719 µM); MIC [20]: 4 µg/mL (≈ 5.75 µM); MIC ([21]; X400): 0.5 µg/mL (≈ 0.719 µM); MIC (Streptococcus Group 9960; Streptococcus Group 9960, agar dilution, read-out: MIC): 0.5 µg/mL (≈ 0.719 µM); ED50 ([22]; C203, po, read-out: ED50, Oral): > 100 mg/kg; ED50 [22, 23]: 13.7 mg/kg
